The values that follow are results of earlier work, collected in patent publication US20090286795A1, “USE OF VASCULAR ENDOTHELIAL GROWTH FACTOR RECEPTOR INHIBITORS FOR THE TREATMENT OF CANCER” (priority 2006, published 2009).

The conditions of this data set: studies in humans.

The structures appear in SMILES notation.

As to `Clc1ccc(Nc2nnc(Cc3ccncc3)c3ccccc23)cc1` [PTK787, 1-(4-chloroanilino)-4-(4-pyridylmethyl)phthalazine], the tolerability in humans entry is given as “well tolerated” and the tumor vascular permeability result was “reduce tumor vascular permeability”.
